Converted amounts (≈) assume the structure as drawn. Like-named read-outs stand apart in the source and are kept apart here.
Legend:
in vitro = format: cell-based; settings: Chinese hamster, Cytotox. CHO-K1
gram positive bacteria = experiment: In vitro anti-bacterial activity assay (broth dilution MIC), gram positive bacteria; format: cell-based, S. aureus; settings: 18 h
Method in brief: (§1)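 Broth dilution MIC following CLSI M7-A2: compounds serially diluted, log-phase test strains added to final ~5×10^5 CFU/ml, incubated ~18 hours at 35° C in ambient air. Plates read on microplate reader or visually; MIC is lowest concentration inhibiting growth.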

gram negative bacteria = experiment: In vitro anti-bacterial activity assay (broth dilution MIC), gram negative bacteria; format: cell-based, E. coli
Method in brief: as §1

[1] = Mammalian cytotoxicity assay (resazurin), COS-1 cells; format: cell-based; settings: African green monkey, read-out: Cytotox. COS-1
Method in brief: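 Resazurin read-out (0.042 mg/ml, 2 h at 37° C. then 30 min dark, room temperature; fluorescence 535/590 nm) follows 24-hour compound exposure of overnight-seeded cells, serially diluted. IC50 is the concentration giving 50% growth inhibition.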

3T3 fibroblast cells = experiment: In vitro phototoxicity assay (neutral red; UV light-treated vs dark control plates); format: cell-based; settings: for Photo Toxicity UV Tox50: UV light 50 minutes; for Photo Toxicity Dark Tox50: dark control plate
Method in brief: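 Neutral red viability readout (A535 after EtOH/acetic acid extraction) compares paired plates: one exposed 50 min to UV at 1.6–1.8 mW/cm^2, one held in darkness, both dosed with compound in HBSS and recovered overnight. 3T3 fibroblast cells used; phototoxicity taken as the difference.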

[2] = Staphylococcus aureus, S. aureus MRSA5, read-out: Median MIC's G+ S. aureus MRSA5
[3] = Staphylococcus aureus, S. aureus RN450, read-out: Median MIC's G+ S. aureus RN450
[4] = Streptococcus pneumoniae, S. pneumoniae 157E-Strep, read-out: Median MIC's G+ S. pneumoniae 157E-Strep
[5] = Escherichia coli, 18 h, E. coli D1 209, read-out: Median MIC's G− E. coli D1 209
[6] = Escherichia coli, 18 h, E. coli MG 1655, read-out: Median MIC's G− E. coli MG 1655
[7] = Escherichia coli, ATCC25922, 18 h, E. coli ATCC 25922, read-out: Median MIC's G− E. coli ATCC 25922
[8] = Pseudomonas aeruginosa, 18 h, P. aeruginosa K201 PAO6609, read-out: Median MIC's G− P. aeruginosa K201 PAO6609

| Structure (SMILES) | IC50 at 24 h (in vitro) [µM] | MIC (gram positive bacteria; [2]) [µg/mL] | MIC (gram positive bacteria; [3]) [µg/mL] | MIC (gram positive bacteria; [4]) [µg/mL] | MIC (gram negative bacteria; [5]) [µg/mL] | MIC (gram negative bacteria; [6]) [µg/mL] | MIC (gram negative bacteria; [7]) [µg/mL] | MIC (gram negative bacteria; [8]) [µg/mL] | IC50 at 24 h [1] [µM] | Photo Toxicity UV Tox50 (3T3 fibroblast cells) [µM] | Photo Toxicity Dark Tox50 (3T3 fibroblast cells) [µM] |
| --- | --- | --- | --- | --- | --- | --- | --- | --- | --- | --- | --- |
| C=CCNCC(=O)c1ccc(O)c2c1C[C@H]1C[C@H]3[C@H](N(C)C)C(O)=C(C(N)=O)C(=O)[C@@]3(O)C(O)=C1C2=O [BV] | 27.6 | 32 (≈ 62.6 µM) | 4 (≈ 7.82 µM) | 1 (≈ 1.95 µM) | 64 (≈ 125 µM) | 16 (≈ 31.3 µM) | 32 (≈ 62.6 µM) | 64 (≈ 125 µM) | > 122 | >121.69 | >121.69 |
| COCC(=O)c1ccc(O)c2c1C[C@H]1C[C@H]3[C@H](N(C)C)C(O)=C(C(N)=O)C(=O)[C@@]3(O)C(O)=C1C2=O [BW] | > 53.4 | 1 (≈ 2.06 µM) | 0.06 (≈ 0.123 µM) | 0.06 (≈ 0.123 µM) | 64 (≈ 132 µM) | 0.5 (≈ 1.03 µM) | 0.5 (≈ 1.03 µM) | 32 (≈ 65.8 µM) | > 53.4 | >172.1 | >172.1 |
| CC(C)N1CCN(CC(=O)c2ccc(O)c3c2C[C@H]2C[C@H]4[C@H](N(C)C)C(O)=C(C(N)=O)C(=O)[C@@]4(O)C(O)=C2C3=O)CC1 [BX] | > 130 | 4 (≈ 6.87 µM) | 1 (≈ 1.72 µM) | 0.5 (≈ 0.858 µM) | 64 (≈ 110 µM) | 8 (≈ 13.7 µM) | 8 (≈ 13.7 µM) | 64 (≈ 110 µM) | > 130 | >130.05 | >130.05 |
| CN(C)[C@@H]1C(O)=C(C(N)=O)C(=O)[C@@]2(O)C(O)=C3C(=O)c4c(O)ccc(C(=O)CNCc5ccccn5)c4C[C@H]3C[C@@H]12 [BY] | > 13.4 | 32 (≈ 56.9 µM) | 2 (≈ 3.56 µM) | 4 (≈ 7.11 µM) | 64 (≈ 114 µM) | 64 (≈ 114 µM) | 64 (≈ 114 µM) | 64 (≈ 114 µM) | > 13.4 | >133.75 | >133.75 |
| CN(C)[C@@H]1C(O)=C(C(N)=O)C(=O)[C@@]2(O)C(O)=C3C(=O)c4c(O)ccc(C(=O)CNCC(N)=O)c4C[C@H]3C[C@@H]12 [BZ] | > 119 | 64 (≈ 121 µM) | 4 (≈ 7.57 µM) | 4 (≈ 7.57 µM) | 64 (≈ 121 µM) | 64 (≈ 121 µM) | 64 (≈ 121 µM) | 64 (≈ 121 µM) | > 119 | >118.96 | >118.96 |
| COC(C)CNCC(=O)c1ccc(O)c2c1C[C@H]1C[C@H]3[C@H](N(C)C)C(O)=C(C(N)=O)C(=O)[C@@]3(O)C(O)=C1C2=O (stereo partly drawn) [CA] | > 146 | 32 (≈ 58.9 µM) | 4 (≈ 7.36 µM) | 2 (≈ 3.68 µM) | 64 (≈ 118 µM) | 32 (≈ 58.9 µM) | 32 (≈ 58.9 µM) | 64 (≈ 118 µM) | > 146 | >145.98 | >145.98 |
| CN(C)[C@@H]1C(O)=C(C(N)=O)C(=O)[C@@]2(O)C(O)=C3C(=O)c4c(O)ccc(C(=O)CNc5cccnc5)c4C[C@H]3C[C@@H]12 [CB] | 110 | 64 (≈ 117 µM) | 16 (≈ 29.2 µM) | 32 (≈ 58.3 µM) | 64 (≈ 117 µM) | 64 (≈ 117 µM) | 64 (≈ 117 µM) | 64 (≈ 117 µM) | > 153 | >152.86 | >152.86 |
| CN(C)[C@@H]1C(O)=C(C(N)=O)C(=O)[C@@]2(O)C(O)=C3C(=O)c4c(O)ccc(C(=O)CNCc5ccco5)c4C[C@H]3C[C@@H]12 [CC] | > 44.7 | 16 (≈ 29 µM) | 1 (≈ 1.81 µM) | 2 (≈ 3.63 µM) | 64 (≈ 116 µM) | 32 (≈ 58 µM) | 32 (≈ 58 µM) | 64 (≈ 116 µM) | > 44.7 | >144.12 | >144.12 |
| CN(C)c1cc(-c2cccc(C(N)=O)c2)c(O)c2c1C[C@H]1C[C@H]3[C@H](N(C)C)C(O)=C(C(N)=O)C(=O)[C@@]3(O)C(O)=C1C2=O [CD] | > 45.3 | 32 (≈ 55.5 µM) | 8 (≈ 13.9 µM) | 16 (≈ 27.7 µM) | 64 (≈ 111 µM) | 64 (≈ 111 µM) | 64 (≈ 111 µM) | 64 (≈ 111 µM) | > 45.3 | >146.26 | >146.26 |

Reference: US20100022483A1, “Substituted Tetracycline Compounds” (Paratek Pharmaceuticals, Inc., priority 2008, published 2010)
